{"source": "paper PMC9403976", "about": "“Elucidating the path to Plasmodium prolyl-tRNA synthetase inhibitors that overcome halofuginone resistance” (Nature Communications, 2022)", "key": {"PfcProRS": {"molecular_target": "T1, PfcProRS (Plasmodium falciparum, UniProt Q8I5R7)", "T1 construct": "made in house; host or cells: E. coli SoluBL-21", "T1 sequence (Q8I5R7 249-746)": "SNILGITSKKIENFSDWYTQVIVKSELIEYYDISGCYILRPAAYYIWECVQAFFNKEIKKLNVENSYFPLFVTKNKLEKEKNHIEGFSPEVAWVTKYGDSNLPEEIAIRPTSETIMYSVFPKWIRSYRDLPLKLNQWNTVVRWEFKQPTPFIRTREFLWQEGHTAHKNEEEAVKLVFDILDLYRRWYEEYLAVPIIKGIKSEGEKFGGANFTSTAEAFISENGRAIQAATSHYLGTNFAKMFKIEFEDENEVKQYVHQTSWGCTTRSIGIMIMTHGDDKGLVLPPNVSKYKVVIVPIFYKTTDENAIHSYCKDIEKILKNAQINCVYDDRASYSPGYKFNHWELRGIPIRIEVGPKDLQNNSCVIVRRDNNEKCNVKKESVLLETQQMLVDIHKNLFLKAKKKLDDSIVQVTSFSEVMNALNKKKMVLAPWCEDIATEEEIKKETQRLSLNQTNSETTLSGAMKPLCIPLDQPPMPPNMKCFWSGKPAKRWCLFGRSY", "type": "binding", "settings": "single replicates"}, "HsProRS": {"molecular_target": "HsProRS (Homo sapiens, UniProt P07814)", "sequence (P07814 996-1512)": "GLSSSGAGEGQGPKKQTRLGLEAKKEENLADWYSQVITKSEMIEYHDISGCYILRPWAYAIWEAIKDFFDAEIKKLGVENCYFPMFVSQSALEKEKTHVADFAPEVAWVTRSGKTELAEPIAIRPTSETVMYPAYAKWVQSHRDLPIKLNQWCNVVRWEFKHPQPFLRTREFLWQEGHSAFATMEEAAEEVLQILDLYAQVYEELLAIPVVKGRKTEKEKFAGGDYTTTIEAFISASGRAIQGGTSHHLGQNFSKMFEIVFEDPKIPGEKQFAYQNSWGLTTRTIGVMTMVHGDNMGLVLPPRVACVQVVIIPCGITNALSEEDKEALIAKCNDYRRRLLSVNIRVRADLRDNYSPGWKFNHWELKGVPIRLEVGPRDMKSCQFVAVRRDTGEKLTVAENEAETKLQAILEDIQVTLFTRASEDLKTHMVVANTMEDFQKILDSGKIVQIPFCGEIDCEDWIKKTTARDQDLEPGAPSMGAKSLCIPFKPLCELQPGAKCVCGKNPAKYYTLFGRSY", "test": "TR-FRET ligand displacement assay with tracer MAT379 (CoraFluor-1-Halo and anti-His6 antibody formats)", "type": "binding", "parameters": "made in house; host or cells: E. coli SoluBL-21", "settings": "for TR-FRET dose-response, normalized signal (SI Fig 11): individual replicates"}, "P. falciparum Dd2-2D4": {"system": "P. falciparum Dd2-2D4", "test": "P. falciparum asexual blood stage (ABS) growth assay, SYBR Green, 72 h, wild-type parasites", "type": "cell-based, Plasmodium falciparum", "settings": "Plasmodium falciparum, DD2; SI Fig 16b; values on -log scale; read-out: ABS - Dd2-2D4 (converted)"}}, "note": "pIC50, pKd: −log10 of the molar value. “And” between values parts separate entries of the source, which are not always exact repeats. Equal values may be shown once. Read-outs that look alike come from different tables or passages of the source.", "data": [{"compound": "CC(C)(C)OC(=O)N1CCN(C(=O)Nc2nccnc2C(=O)NC2Cc3ccccc3C2)CC1", "note": "[compound 13]", "values": [{"measurement": "dose-response signal (normalized), SI Fig 8", "setting": "PfcProRS; Log[inhibitor] (M) -5.000", "result": "6.57E-01 and 6.36E-01 and 6.64E-01"}, {"measurement": "dose-response signal (normalized), SI Fig 8", "setting": "PfcProRS; Log[inhibitor] (M) -5.301", "result": "8.73E-01 and 7.48E-01 and 7.96E-01"}, {"measurement": "dose-response signal (normalized), SI Fig 8", "setting": "PfcProRS; Log[inhibitor] (M) -5.601", "result": "9.97E-01 and 9.02E-01 and 8.50E-01"}, {"measurement": "dose-response signal (normalized), SI Fig 8", "setting": "PfcProRS; Log[inhibitor] (M) -5.904", "result": "9.78E-01 and 1.07E+00 and 1.00E+00"}, {"measurement": "dose-response signal (normalized), SI Fig 8", "setting": "PfcProRS; Log[inhibitor] (M) -6.208", "result": "1.06E+00 (2×) and 9.45E-01"}, {"measurement": "dose-response signal (normalized), SI Fig 8", "setting": "PfcProRS; Log[inhibitor] (M) -6.509", "result": "1.17E+00 and 1.01E+00 and 1.09E+00"}, {"measurement": "dose-response signal (normalized), SI Fig 8", "setting": "PfcProRS; Log[inhibitor] (M) -6.796", "result": "1.13E+00 and 1.01E+00 and 1.17E+00"}, {"measurement": "dose-response signal (normalized), SI Fig 8", "setting": "PfcProRS; Log[inhibitor] (M) -7.108", "result": "1.04E+00 and 9.91E-01 and 1.15E+00"}, {"measurement": "dose-response signal (normalized), SI Fig 8", "setting": "PfcProRS; Log[inhibitor] (M) -7.409", "result": "1.05E+00 and 1.06E+00 and 1.03E+00"}, {"measurement": "dose-response signal (normalized), SI Fig 8", "setting": "PfcProRS; Log[inhibitor] (M) -7.710", "result": "1.04E+00 and 9.80E-01 and 9.98E-01"}, {"measurement": "dose-response signal (normalized), SI Fig 8", "setting": "PfcProRS; Log[inhibitor] (M) -8.000", "result": "1.08E+00 and 9.50E-01 and 1.05E+00"}, {"measurement": "dose-response signal (normalized), SI Fig 8", "setting": "PfcProRS; Log[inhibitor] (M) -8.301", "result": "1.02E+00 and 1.08E+00 and 1.09E+00"}, {"measurement": "dose-response signal (normalized), SI Fig 8", "setting": "PfcProRS; Log[inhibitor] (M) -8.602", "result": "9.84E-01 and 9.74E-01 and 9.67E-01"}, {"measurement": "dose-response signal (normalized), SI Fig 8", "setting": "PfcProRS; Log[inhibitor] (M) -9.000", "result": "1.06E+00 and 9.60E-01 and 9.76E-01"}, {"measurement": "dose-response signal (normalized), SI Fig 8", "setting": "PfcProRS; Log[inhibitor] (M) -9.301", "result": "1.07E+00 and 9.33E-01 and 9.62E-01"}, {"measurement": "pIC50", "setting": "HsProRS", "result": "< 5.00"}, {"measurement": "HsProRS % signal at 10 μM, + 100 μM proline", "setting": "HsProRS; + 100 μM proline, 10 μM", "result": 52.2, "unit": "%"}, {"measurement": "normalized TR-FRET ligand displacement signal, dose-response replicates (SI Fig 6)", "setting": "HsProRS; Log[inhibitor] (M) -5.000", "result": "5.04E-01 and 5.72E-01 and 5.31E-01"}, {"measurement": "TR-FRET dose-response, normalized signal (SI Fig 11)", "setting": "HsProRS; Log[inhibitor] (M) -5.000", "result": "5.54E-01 and 6.12E-01 and 6.15E-01"}, {"measurement": "normalized TR-FRET ligand displacement signal, dose-response replicates (SI Fig 6)", "setting": "HsProRS; Log[inhibitor] (M) -5.301", "result": "6.63E-01 and 7.73E-01 and 7.12E-01"}, {"measurement": "TR-FRET dose-response, normalized signal (SI Fig 11)", "setting": "HsProRS; Log[inhibitor] (M) -5.301", "result": "7.87E-01 and 7.25E-01 and 6.74E-01"}, {"measurement": "normalized TR-FRET ligand displacement signal, dose-response replicates (SI Fig 6)", "setting": "HsProRS; Log[inhibitor] (M) -5.601", "result": "9.43E-01 and 7.95E-01 and 9.57E-01"}, {"measurement": "TR-FRET dose-response, normalized signal (SI Fig 11)", "setting": "HsProRS; Log[inhibitor] (M) -5.601", "result": "8.12E-01 and 8.26E-01 and 8.38E-01"}, {"measurement": "normalized TR-FRET ligand displacement signal, dose-response replicates (SI Fig 6)", "setting": "HsProRS; Log[inhibitor] (M) -5.904", "result": "9.95E-01 and 9.88E-01 and 9.03E-01"}, {"measurement": "TR-FRET dose-response, normalized signal (SI Fig 11)", "setting": "HsProRS; Log[inhibitor] (M) -5.904", "result": "8.50E-01 and 8.61E-01 and 8.43E-01"}, {"measurement": "normalized TR-FRET ligand displacement signal, dose-response replicates (SI Fig 6)", "setting": "HsProRS; Log[inhibitor] (M) -6.208", "result": "1.02E+00 and 9.02E-01 and 9.17E-01"}, {"measurement": "TR-FRET dose-response, normalized signal (SI Fig 11)", "setting": "HsProRS; Log[inhibitor] (M) -6.208", "result": "9.15E-01 and 9.28E-01 and 8.71E-01"}, {"measurement": "normalized TR-FRET ligand displacement signal, dose-response replicates (SI Fig 6)", "setting": "HsProRS; Log[inhibitor] (M) -6.509", "result": "9.58E-01 and 9.37E-01 and 9.28E-01"}, {"measurement": "TR-FRET dose-response, normalized signal (SI Fig 11)", "setting": "HsProRS; Log[inhibitor] (M) -6.509", "result": "9.05E-01 and 9.50E-01 and 9.14E-01"}, {"measurement": "normalized TR-FRET ligand displacement signal, dose-response replicates (SI Fig 6)", "setting": "HsProRS; Log[inhibitor] (M) -6.796", "result": "1.05E+00 (2×) and 9.53E-01"}, {"measurement": "TR-FRET dose-response, normalized signal (SI Fig 11)", "setting": "HsProRS; Log[inhibitor] (M) -6.796", "result": "9.07E-01 and 9.30E-01 and 8.71E-01"}, {"measurement": "normalized TR-FRET ligand displacement signal, dose-response replicates (SI Fig 6)", "setting": "HsProRS; Log[inhibitor] (M) -7.108", "result": "1.05E+00 and 1.10E+00 and 9.73E-01"}, {"measurement": "TR-FRET dose-response, normalized signal (SI Fig 11)", "setting": "HsProRS; Log[inhibitor] (M) -7.108", "result": "9.13E-01 and 9.30E-01 and 9.12E-01"}, {"measurement": "normalized TR-FRET ligand displacement signal, dose-response replicates (SI Fig 6)", "setting": "HsProRS; Log[inhibitor] (M) -7.409", "result": "1.03E+00 and 1.01E+00 (2×)"}, {"measurement": "TR-FRET dose-response, normalized signal (SI Fig 11)", "setting": "HsProRS; Log[inhibitor] (M) -7.409", "result": "9.32E-01 and 9.37E-01 and 8.25E-01"}, {"measurement": "normalized TR-FRET ligand displacement signal, dose-response replicates (SI Fig 6)", "setting": "HsProRS; Log[inhibitor] (M) -7.710", "result": "9.23E-01 (2×) and 9.87E-01"}, {"measurement": "TR-FRET dose-response, normalized signal (SI Fig 11)", "setting": "HsProRS; Log[inhibitor] (M) -7.710", "result": "9.18E-01 and 8.75E-01 and 8.91E-01"}, {"measurement": "normalized TR-FRET ligand displacement signal, dose-response replicates (SI Fig 6)", "setting": "HsProRS; Log[inhibitor] (M) -8.000", "result": "9.04E-01 and 9.35E-01 and 9.98E-01"}, {"measurement": "TR-FRET dose-response, normalized signal (SI Fig 11)", "setting": "HsProRS; Log[inhibitor] (M) -8.000", "result": "9.32E-01 and 9.16E-01 and 8.80E-01"}, {"measurement": "normalized TR-FRET ligand displacement signal, dose-response replicates (SI Fig 6)", "setting": "HsProRS; Log[inhibitor] (M) -8.301", "result": "9.80E-01 and 9.08E-01 and 1.02E+00"}, {"measurement": "TR-FRET dose-response, normalized signal (SI Fig 11)", "setting": "HsProRS; Log[inhibitor] (M) -8.301", "result": "8.80E-01 and 9.57E-01 and 9.53E-01"}, {"measurement": "normalized TR-FRET ligand displacement signal, dose-response replicates (SI Fig 6)", "setting": "HsProRS; Log[inhibitor] (M) -8.602", "result": "9.80E-01 and 9.47E-01 and 9.05E-01"}, {"measurement": "TR-FRET dose-response, normalized signal (SI Fig 11)", "setting": "HsProRS; Log[inhibitor] (M) -8.602", "result": "9.10E-01 and 9.58E-01 and 9.24E-01"}, {"measurement": "normalized TR-FRET ligand displacement signal, dose-response replicates (SI Fig 6)", "setting": "HsProRS; Log[inhibitor] (M) -9.000", "result": "9.78E-01 and 9.57E-01 and 9.87E-01"}, {"measurement": "TR-FRET dose-response, normalized signal (SI Fig 11)", "setting": "HsProRS; Log[inhibitor] (M) -9.000", "result": "9.07E-01 and 8.93E-01 and 8.97E-01"}, {"measurement": "normalized TR-FRET ligand displacement signal, dose-response replicates (SI Fig 6)", "setting": "HsProRS; Log[inhibitor] (M) -9.301", "result": "9.45E-01 and 8.63E-01 and 9.67E-01"}, {"measurement": "TR-FRET dose-response, normalized signal (SI Fig 11)", "setting": "HsProRS; Log[inhibitor] (M) -9.301", "result": "9.11E-01 and 8.69E-01 and 9.61E-01"}, {"measurement": "HsProRS % signal at 10 μM", "setting": "HsProRS; no added proline/ATP (-), 10 μM", "result": 59.4, "unit": "%"}, {"measurement": "pIC50", "setting": "HsProRS; read-out: HsProRS IC50 + 100 μM proline, + 100 μM proline", "result": "< 5.00"}]}, {"compound": "O=C(NC1Cc2ccccc2C1)c1nccnc1NC(=O)C1(O)CCCCC1", "note": "[compound 15]", "values": [{"measurement": "EC50", "setting": "P. falciparum Dd2-2D4", "result": 1.5, "unit": "µM"}, {"measurement": "Kd", "setting": "HsProRS; HsProRS (KD [nM]) mean, no added proline/ATP (-)", "result": 2700, "unit": "nM"}, {"measurement": "pKd", "setting": "HsProRS; HsProRS - best Kd, SI Fig 16a, values on -log scale", "result": 7.66}]}]}
